Reference: patent publication US20200000752A1, “Method for Treating Epilepsy” (Vanderbilt University, priority 2016, published 2020)

Experiments:
[1] = MDCKII bidirectional assay; format: in vitro ADME; settings: dog
Description: (§1) MDCKII bidirectional assay was run in collaboration with Dr. Shaun Stauffer in Vanderbilt Institute of Chemical Biology (VICB) synthesis core who is a consultant on this project.

[2] = system: MDCKII cells; assay: MDCKII bidirectional assay; format: in vitro ADME; settings: MDCK II bidirectional assay
Description: as §1

[3] = Tolerability of repeated daily IP dosing in mice; format: in vivo
[4] = system: GABAA receptor α1 subunit; assay: GABAAR α1 subunit expression by high-throughput flow cytometry in HEK 293T cells; format: cell-based, human
Experimental: The neuronal viability was determined with membrane integrity by trypan blue exclusion method^12. The mean survival was determined by counting eight randomly selected, non-overlapping fields with each containing approximately 10-20 neurons (viable+nonviable) (n=4 different cultures). GABAAR expression was determined by the high-throughput flow cytometry. HEK 293T cells were transfected with human α1, β2 and γ2 subunit cDNAs at 1:1:1 ratio for 48 hours. The α1 subunit was chosen as readout. The anti-α1 antibody was directly conjugated with Alexa 488 (data are mean±SEM, n=4). The healthy population was gated.
HEK 293T cells were transfected with wt γ2 or γ2(Q390X) subunits in combination with al and […] subunits at 1:1:1 cDNA ratio for 48 hrs. […] The cells were either unpermeabilized for surface staining (FIG. 11A, 11C) or permeabilized for total staining (FIG. 11B, 11D). al subunits were probed with mouse anti-α1 subunit antibody conjugated with Alexa 647. The relative al subunit fluorescence intensity (FI) was normalized to the wild-type without celastrol treatment.

[5] = system: Scn1a^+/− mouse; assay: Chronic intermittent dosing toxicity in an Scn1a+/- mouse; format: in vivo
Description: An eight-month old male Scn1a^+/− mouse with chronic intermittent dosing was investigated for cortex and hippocampus neuronal survival, which was normal (FIG. 8A).

[6] = system: mutant γ2(Q390X) subunit protein; assay: Western blot of mutant γ2(Q390X) subunit protein in HEK 293T cells; format: cell-based; settings: 1 μm for 4 hours
Experimental: Total lysates from HEK 293T cells expressing wild-type α1β2γ2 (wt) or the mutant α1β2γ2(Q390X) (mut) receptors for 48 hrs from or from 1 year old wt or Gabrg2^+/Q390X (het) mouse brains were analyzed by western blot (FIGS. 10A and 10B).

[7] = system: GABAergic mIPSCs; assay: GABAergic mIPSCs in cortical layer VI pyramidal neurons of Gabrg2+/Q390X mice; format: in vivo, mouse
Description: […]. This effect is consistent with its upregulation of GABAA receptor subunits. There is no difference between the decay tau (time constant) in the condition treated with celastrol vs non treated. (n=7-9 cells from 3 mice in each group, *P<0.05, ** P<0.01 vs het).
Coronal ([…]) or horizontal ([…] thick) brain slices containing thalamic neurons in nucleus reticularis thalami (nRT), ventrobasal nucleus (VBn), Ventral lateral thalamus (VL) and cortex will be sectioned with a vibratome in ice-cooled solution containing (in mM) 214 Sucrose, 2.5 KCl, 1.25 NaH2PO4, 0.5 CaCl2), 10 MgSO4, 24 NaHCO3, and 11 D-glucose, pH 7.4 bubbled with 95% O2/5% CO2 at 4° C. Slices are then incubated in oxygenated artificial cerebrospinal fluid (ACSF)^40 at 36° C. for 30 min (Moyer and Brown, 1998). After this, slices will be kept at room temperature for at least 1 hr before recording on a Nikon Eclipse FN-1 IR-DIC microscope at room temperature. Pipette internal solution will contain (in mM): 135 CsCl, 10 EGTA, 10 HEPES, 5 ATP-Mg, and QX-314 (5 mM) (pH 7.25, 290-295 mOsm), and resistances will be of 2-4 MΩ (25). Tetrodotoxin (TIX) 1 μm will be added to the external solution. We will record the neurons in layer V-VI in somatosemsory cortex in this application. The experimental details have been described before^39.

[8] = system: GABAA receptor subunits; assay: Surface GABAA receptor subunit expression in Scn1a+/- mice; format: in vivo, mouse; settings: 0.3 mg/kg IP for 14 days, cortex and thalamus
Experimental: The biotinylated surface proteins from either cortex (FIG. 15A) or thalamus (FIG. 15B) were analyzed by SDS-PAGE and immunoblotted with anti-GABAA receptor al subunit antibody. The protein IDVs of al subunits were normalized to its loading control and then to that in either cortex (cor) or thalamus (tha) in untreated wild-type mice (n==4) (FIGS. 15C and 15D). […] In FIGS. 15E and 15G, MJ stands for myoclonic jerks with behavioral correlation while GTCS for generalized tonic clonic seizures. The number of myoclonic jerks (MJ) and generalized tonic clonic seizures (GTCS) is the total number over 24 hrs. In G, mice were from the same litter, n=2 for each genotype.

[9] = system: Scn1a^+/− mice; assay: PTZ-induced seizures in Scn1a+/- mice after 14 days treatment; format: in vivo, mouse; settings: 0.3 mg/kg IP 14 days; PTZ 50 mg/kg IP
[10] = system: heat shock protein Hsp70; assay: Hsp70 expression by high throughput flow cytometry in HEK 293T cells; format: cell-based; settings: 4 hrs before harvest
Description: HEK 293T cells were transfected with α1, β2 and wild-type γ2S (wt) or the mutant γ2S(Q390X) (mut) subunits for 48 hrs (FIG. 16). […] The cells were permeabilized and stained with monoclonal hsp70 (1:200) which was then conjugated with Alexa 647.

[11] = system: epilepsy mouse models, AppSWE/PsenIdE9 mice; assay: PTZ seizure severity (Racine scale) in different epilepsy mouse models and AppSWE/PsenIdE9 mice; format: in vivo; settings: 0.3 mg/kg IP daily×14 days; PTZ 50 mg/kg IP; n=5 per group
Description: In this regard, an asterisk stands for the mutant protein aggregation in the neurons in related mouse models.

[12] = Caco-2 intrinsic permeability; settings: human
[13] = system: Caco2 cells; assay: Caco-2 intrinsic permeability
[14] = PK of celastrol from IV, IP and PO studies in C57BL/6J mice; settings: male, mouse, whole blood
[15] = 3 litters with 6-8 grossly normal pups

For `CC1=C(O)C(=O)C=C2C1=CC=C1[C@@]2(C)CC[C@@]2(C)[C@@H]3C[C@](C)(C(=O)O)CC[C@]3(C)CC[C@]12C` [Celastrol, 3-Hydroxy-9β,13α-dimethyl-2-oxo-24,25,26-trinoroleana-1(10),3,5,7-tetraen-29-oic acid], which Papp ([1]; MDCK, MDCKII cells, read-out: apparent membrane permeability Papp) is on record?
Its Papp is no less than 10 nm/s.

What about the Papp A→B ([1]; MDCK II bidirectional assay) of the same molecule?
Its Papp A→B is 565 nm/s.

And the efflux [2]?
The efflux was “no significant efflux”.

What about the adverse signs ([3]; 3 and 6 mg/kg IP daily, Gabrg2^+/Q390X mice) of the same molecule?
The adverse signs was “lethargy, unkempt fur”.

What about the adverse signs ([3]; IP 3 mg/kg daily for 5 days, starting at day 4) of the same molecule?
Its adverse signs is “lethargy, unkempt fur and weight loss”.

And the tolerability ([3]; IP 0.3, 0.6 and 1.5 mg/kg daily for 7 days, C57BL/6J mice)?
The tolerability was “tolerated well”.

What about the “adverse effect at doses other than 3 and 6 mg/kg” value ([3]; IP daily 2 weeks or oral gavage 14 days) of the same molecule?
Its value is “no adverse effect”.

What about the cell death ([4]; HEK 293T dishes with 2 and 4 μm) of the same molecule?
Its cell death is “Cell death was observed”.

What about the “surface α1 subunits” value ([4]; HEK 293T, α1β2γ2, 0-8 μm for 4 hours) of the same molecule?
The value was “concentration dependently increased”.

What about the fertility [5, 15] of the same molecule?
The fertility was “normal fertility”.

What about the teratogenicity [5, 15] of the same molecule?
The teratogenicity was “no teratogenicity”.

What about the “HE staining of liver, kidney and heart” value ([5]; chronic intermittent dosing) of the same molecule?
The value was “Normal cell numbers, morphology and viability”.

What about the “HE staining of lung, spleen, intestine, testis, leg muscle and skin” value ([5]; chronic intermittent dosing) of the same molecule?
Its value is “no abnormalities were identified”.

And the blood counts ([5]; chronic intermittent dosing)?
Its blood counts is “normal blood counts”.

What about the “organ function, total protein and metabolics” value ([5]; chronic intermittent dosing) of the same molecule?
The value was “normal function of liver, heart and kidney and normal total protein and metabolics”.

And the “cortex and hippocampus neuronal survival” value ([5]; eight-month old male, chronic intermittent dosing)?
Its value is “normal”.

And the “mutant γ2(Q390X) subunit protein” value [6]?
The value was “reduced”.

And the “amplitude of GABAergic mIPSCs” value ([7]; 0.3 mg/kg IP for 14 days)?
Its value is “increased”.

What about the “frequency of GABAergic mIPSCs” value ([7]; 0.3 mg/kg IP for 14 days) of the same molecule?
Its value is “increased”.

What about the “decay tau (time constant)” value ([7]; treated vs non treated) of the same molecule?
Its value is “no difference”.

What about the “surface GABAA receptor subunit expression” value [8] of the same molecule?
The value was “Increased”.

And the “seizure threshold and seizures after PTZ” value [9]?
The value was “increased seizure threshold and decreased seizures”.

And the “expression of Hsp70” value [10]?
The value was “Increased”.

What about the seizure severity [11] of the same molecule?
The seizure severity was “reduced seizure severity”.

What about the Papp at 2 h, 2 microM [12] of the same molecule?
Its Papp at 2 h, 2 microM is no less than 10 nm/s.

And the “membrane permeability in Caco2 assay, in words” value [13]?
Its value is “high membrane permeability”.

And the bioavailability [14]?
Its bioavailability is roughly 20%.

What about the bioavailability ([14]; 10 mg/kg) of the same molecule?
The bioavailability was 20%.
